The structures appear in SMILES notation.

By IC50 is commonly meant the concentration that gives 50% inhibition.

Sequence of human plasma kallikrein (P03952 391-638 limits assumed): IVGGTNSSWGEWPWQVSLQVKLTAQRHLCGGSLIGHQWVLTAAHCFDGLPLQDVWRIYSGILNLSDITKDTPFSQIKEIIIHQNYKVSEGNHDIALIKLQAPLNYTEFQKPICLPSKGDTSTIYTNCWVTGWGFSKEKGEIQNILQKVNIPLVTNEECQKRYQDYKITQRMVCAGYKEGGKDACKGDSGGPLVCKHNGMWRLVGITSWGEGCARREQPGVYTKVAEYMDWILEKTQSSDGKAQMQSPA
Sequence of human plasma kallikrein (P03952 20-390 partner limits assumed): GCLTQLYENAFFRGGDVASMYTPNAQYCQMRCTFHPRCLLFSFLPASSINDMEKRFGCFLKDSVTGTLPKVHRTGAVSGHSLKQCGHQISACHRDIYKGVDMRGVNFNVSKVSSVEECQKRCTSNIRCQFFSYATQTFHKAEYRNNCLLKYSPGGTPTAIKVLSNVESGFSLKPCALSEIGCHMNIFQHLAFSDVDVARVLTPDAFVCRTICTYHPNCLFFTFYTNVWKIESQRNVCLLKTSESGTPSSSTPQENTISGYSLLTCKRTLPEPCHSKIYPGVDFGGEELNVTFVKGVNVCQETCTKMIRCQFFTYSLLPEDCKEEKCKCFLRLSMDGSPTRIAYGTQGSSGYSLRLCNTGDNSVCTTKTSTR

The assay concerns the target human plasma kallikrein (Homo sapiens, UniProt P03952). Briefly: Kallikrein inhibition FLINT assay with quenched AMC peptide substrate Z-Gly-Pro-Arg-AMC (end point EP or kinetic KIN reads). To be noted: kinetic reads at 5 min intervals over 30 min; read-out: Kallikrein (KIN) IC50. It counts as biochemical. On the procedure:
A fluorescence intensity (FLINT) based assay was used to monitor inhibition of human plasma kallikrein.
The Kallikrein FLINT assay was used with the following Z-Gly-Pro-Arg-AMC assay buffer: 50 mM Tris, pH 7.5, 100 mM NaCl, 5 mM CaCl2, 0.1 mg/mL BSA, 0.03% CHAPS. Assay buffer was prepared by mixing all ingredients fresh. 2× Z-Gly-Pro-Arg-AMC peptide substrate was prepared by diluting 10 mM stock into 1× assay buffer for a 100 μM working concentration (50 μM final concentration).
Test compound(s) were run in an 11-point, 3-fold serial dilution with a final top compound concentration of 1 μM. Final DMSO in assay was 2%. Plasma kallikrein was pre-incubated for 30-minute with compound and then 50 μM substrate was added to initiate the reaction. The assay was run with either end point (EP) reads at 30 min or kinetic (KIN) reads at 5 min intervals over 30 minutes.
Percent inhibition (IC50) curves were generated per compound tested, and data was analyzed using a 4-parameter logistic fit using GeneData Screener. The relative fluorescence unit (RFU) values were normalized to percent inhibition using the following equation: % inhibition=((HC−LC)−(compound−LC)/(HC−LC))*100
An 11-point dose response curve for the test compound(s) was generated using GENDATA to determine IC50 value based on the following equation: Y=Bottom+(Top−Bottom)/(1+10^((log IC50−X)*HillSlope))
Results listed in columns with […] designation were measured using endpoint reads where a single fluorescence reading was measured for each well at a 30 min timepoint.
`CN1CCN(CC(c2ccc(-c3c(-n4cnnn4)ccc(Cl)c3F)c[n+]2[O-])n2cc(-c3ccnc(C(F)(F)F)c3)cn2)C1=O` (single isomer, unassigned) [Example P433]: the IC50 worked out at 105 nM. Turning to `CN(CC(c1ccc(-c2c(-n3cnnn3)ccc(Cl)c2F)c[n+]1[O-])n1cc(-c2ccnc(C(F)(F)F)c2)cn1)C(=O)c1ccn(C)c(=O)c1` (single isomer, unassigned) [Example P434], the IC50 was found to be 427 nM.

As for `CN(CC(c1ccc(-c2c(-n3cnnn3)ccc(Cl)c2F)c[n+]1[O-])n1cc(-c2ccnc(C(F)(F)F)c2)cn1)C(=O)c1ccn(C)c(=O)c1` (single isomer, unassigned) [Example P435], the IC50 worked out at 9.7 nM. Consider `N#Cc1cc(-c2cnn(C(CN3CCOC3=O)c3ccc(-c4c(-n5cnnn5)ccc(Cl)c4F)c[n+]3[O-])c2)ccn1` (single isomer, unassigned) [Example P439], for which the IC50 worked out at 69.8 nM. Take `COCc1ccn(CC(c2ccc(-c3c(-n4cnnn4)ccc(Cl)c3F)c[n+]2[O-])n2cc(-c3ccnc(C(F)(F)F)c3)cn2)n1` (single isomer, unassigned) [Example P440]: the IC50 was determined as 70.2 nM. As for `COCc1ccn(CC(c2ccc(-c3c(-n4cnnn4)ccc(Cl)c3F)c[n+]2[O-])n2cc(-c3ccnc(C(F)(F)F)c3)cn2)n1` (single isomer, unassigned) [Example P441], the IC50 worked out at 3.2 nM. `NC(=O)c1ccn(CC(c2ccc(-c3c(-n4cnnn4)ccc(Cl)c3F)c[n+]2[O-])n2cc(-c3ccnc(C(F)(F)F)c3)cn2)n1` (single isomer, unassigned) [Example P448]: the IC50 was found to be 9.4 nM. With `O=C(c1ccn(CC(c2ccc(-c3c(-n4cnnn4)ccc(Cl)c3F)c[n+]2[O-])n2cc(-c3ccnc(C(F)(F)F)c3)cn2)n1)N1CCCCC1` (single isomer, unassigned) [Example P449], the IC50 was 12 nM. For `CN(C)C(=O)c1ccn(CC(c2ccc(-c3c(-n4cnnn4)ccc(Cl)c3F)c[n+]2[O-])n2cc(-c3ccnc(C(F)(F)F)c3)cn2)n1` (single isomer, unassigned) [Example P451], the IC50 was 17.8 nM. For `N#Cc1cc(-c2cnn(C(Cn3cc(F)cn3)c3ccc(-c4c(-n5cnnn5)ccc(Cl)c4F)c[n+]3[O-])c2)ccn1` (single isomer, unassigned) [Example P453], the IC50 was 132 nM. As for `N#Cc1cc(-c2cnn(C(Cn3cc(F)cn3)c3ccc(-c4c(-n5cnnn5)ccc(Cl)c4F)c[n+]3[O-])c2)ccn1` (single isomer, unassigned) [Example P454], the IC50 is 12.6 nM. On to `[O-][n+]1cc(-c2c(-n3cc(Cl)nn3)ccc(Cl)c2F)ccc1C(Cn1cc(F)cn1)n1cc(-c2ccnc(C(F)(F)F)c2)cn1` (single isomer, unassigned) [Example P480], for which the IC50 was determined as 31.2 nM. `COc1cc(C(CC2CC2)n2cc(-c3ccnn3C)cn2)[n+]([O-])cc1-c1c(-n2cnnn2)ccc(Cl)c1F` (single isomer, unassigned) [Example P490]: the IC50 worked out at 16.3 nM. With `COc1cc(C(CC2CC2)n2cc(-c3ccnn3C)cn2)[n+]([O-])cc1-c1c(-n2cnnn2)ccc(Cl)c1F` (single isomer, unassigned) [Example P491], the IC50 stood at 2.1 nM.

Consider `Cn1nccc1-c1cnn(C(Cn2cc(F)cn2)c2ccc(-c3c(-n4cnnn4)ccc(Cl)c3F)c[n+]2[O-])c1` (single isomer, unassigned) [Example P501], for which the IC50 came out at 736 nM. Consider `[O-][n+]1cc(-c2c(-n3cnnn3)ccc(Cl)c2F)ccc1C(Cn1cccn1)n1cc(-c2ccnc(C(F)(F)F)c2)cn1` (single isomer, unassigned) [Example P513], for which the IC50 was 5.3 nM. For `[O-][n+]1cc(-c2c(-n3cnnn3)ccc(Cl)c2F)ccc1C(Cn1cccn1)n1cc(-c2ccnc(C(F)(F)F)c2)cn1` (single isomer, unassigned) [Example P514] the value was 72.9 nM; for `[O-][n+]1cc(-c2c(-n3cnnn3)ccc(Cl)c2F)ccc1C(Cn1cc(-c2ccccn2)cn1)n1cc(-c2ccccn2)cn1` (single isomer, unassigned) [Example P515], 144 nM.

As for `[O-][n+]1cc(-c2c(-n3cnnn3)ccc(Cl)c2F)ccc1C(Cn1cc(-c2ccccn2)cn1)n1cc(-c2ccccn2)cn1` (single isomer, unassigned) [Example P516], the IC50 was determined as 139 nM. Regarding `COCCC(c1ccc(-c2c(-n3cnnn3)ccc(Cl)c2F)c[n+]1[O-])n1cc(-n2ccnc2)cn1` (single isomer, unassigned) [Example P527], the IC50 amounted to 176 nM.

For `[O-][n+]1cc(-c2c(-n3cnnn3)ccc(Cl)c2F)ccc1C(Cn1cc(F)c(COC(F)F)n1)n1cc(-c2ccnc(C(F)(F)F)c2)cn1` (single isomer, unassigned) [Example P570], the IC50 stood at 7.2 nM. With `[O-][n+]1cc(-c2c(-n3cnnn3)ccc(Cl)c2F)ccc1C(Cn1cc(F)c(COC(F)F)n1)n1cc(-c2ccnc(C(F)(F)F)c2)cn1` (single isomer, unassigned) [Example P571], the IC50 came out at 134 nM. Turning to `[O-][n+]1cc(-c2c(-n3cnnn3)ccc(Cl)c2F)ccc1C(Cc1ccc(F)cc1)n1cc(-c2c(Cl)nnn2C(F)F)cn1` (single isomer, unassigned) [Example P589], the half-maximal inhibitory concentration (IC50) was determined as 520 nM.

For `[O-][n+]1cc(-c2c(-n3cnnn3)ccc(Cl)c2F)ccc1C(Cc1ccc(F)cc1)n1cc(-c2cnn(C(F)F)n2)cn1` (single isomer, unassigned) [Example P598], the IC50 amounted to 862 nM.

`[O-][n+]1cc(-c2c(-n3cnnn3)ccc(Cl)c2F)ccc1C(Cn1cc(F)cn1)n1cc(-c2ccnn2C(F)F)cn1` (single isomer, unassigned) [Example P644]: the IC50 turned out to be 14.5 nM. Take `[O-][n+]1cc(-c2c(-n3cnnn3)ccc(Cl)c2F)ccc1C(CCOC(F)F)n1cc(-c2cn(C(F)F)nn2)cn1` (single isomer, unassigned) [Example P659]: the IC50 was 170 nM. Consider `[O-][n+]1cc(-c2c(-n3cnnn3)ccc(Cl)c2F)ccc1C(CCOC(F)F)n1cc(-c2cn(C(F)F)nn2)cn1` (single isomer, unassigned) [Example P660], for which the IC50 came to 287 nM.

Consider `N#Cc1cnn(C(F)F)c1-c1cnn(C(CC2CC2)c2ccc(-c3c(-n4cnnn4)ccc(Cl)c3F)c[n+]2[O-])c1` (single isomer, unassigned) [Example P663], for which the IC50 is 933 nM. For `[O-][n+]1cc(-c2c(-n3cc(Cl)nn3)ccc(Cl)c2F)ccc1C(Cn1cccn1)n1cc(-c2cn(C(F)F)nn2)cn1` (single isomer, unassigned) [Example P664] the value was 380 nM; for `[O-][n+]1cc(-c2c(-n3cnnn3)ccc(Cl)c2F)ccc1C(C(O)c1ccccc1)n1cc(-c2ccnn2C(F)F)cn1` (single isomer, unassigned) [Example P713], 29.9 nM; for `[O-][n+]1cc(-c2c(-n3cnnn3)ccc(Cl)c2F)ccc1C(C(O)c1ccccc1)n1cc(-c2ccnn2C(F)F)cn1` (single isomer, unassigned) [Example P716], 22.1 nM. As to `[O-][n+]1cc(-c2c(-n3cnnn3)ccc(Cl)c2F)ccc1C(C(O)c1ccccc1)n1cc(-c2ccnn2C(F)F)cn1` (single isomer, unassigned) [Example P719], the IC50 came to 516 nM.

For the compound `Cn1ncnc1-c1cnn(C(CCOC(F)F)c2ccc(-c3c(-n4nncc4OC(F)F)ccc(Cl)c3F)c[n+]2[O-])c1` (single isomer, unassigned) [Example P800], the IC50 turned out to be 62.7 nM.

These data come from patent publication US11814364B2, “Pyridine N-oxide derivatives useful as factor XIa inhibitors” (Janssen Pharmaceutica NV, priority 2021, dated 2023).
